The record followed here is US20240228463A1, “SODIUM CHANNEL INHIBITORS AND METHODS OF DESIGNING SAME” (Genentech, Inc., priority 2021, published 2024).

Counter-ions that a name gives are not always drawn.

T1 sequence (Q15858 1-1977 isoform Q15858-3): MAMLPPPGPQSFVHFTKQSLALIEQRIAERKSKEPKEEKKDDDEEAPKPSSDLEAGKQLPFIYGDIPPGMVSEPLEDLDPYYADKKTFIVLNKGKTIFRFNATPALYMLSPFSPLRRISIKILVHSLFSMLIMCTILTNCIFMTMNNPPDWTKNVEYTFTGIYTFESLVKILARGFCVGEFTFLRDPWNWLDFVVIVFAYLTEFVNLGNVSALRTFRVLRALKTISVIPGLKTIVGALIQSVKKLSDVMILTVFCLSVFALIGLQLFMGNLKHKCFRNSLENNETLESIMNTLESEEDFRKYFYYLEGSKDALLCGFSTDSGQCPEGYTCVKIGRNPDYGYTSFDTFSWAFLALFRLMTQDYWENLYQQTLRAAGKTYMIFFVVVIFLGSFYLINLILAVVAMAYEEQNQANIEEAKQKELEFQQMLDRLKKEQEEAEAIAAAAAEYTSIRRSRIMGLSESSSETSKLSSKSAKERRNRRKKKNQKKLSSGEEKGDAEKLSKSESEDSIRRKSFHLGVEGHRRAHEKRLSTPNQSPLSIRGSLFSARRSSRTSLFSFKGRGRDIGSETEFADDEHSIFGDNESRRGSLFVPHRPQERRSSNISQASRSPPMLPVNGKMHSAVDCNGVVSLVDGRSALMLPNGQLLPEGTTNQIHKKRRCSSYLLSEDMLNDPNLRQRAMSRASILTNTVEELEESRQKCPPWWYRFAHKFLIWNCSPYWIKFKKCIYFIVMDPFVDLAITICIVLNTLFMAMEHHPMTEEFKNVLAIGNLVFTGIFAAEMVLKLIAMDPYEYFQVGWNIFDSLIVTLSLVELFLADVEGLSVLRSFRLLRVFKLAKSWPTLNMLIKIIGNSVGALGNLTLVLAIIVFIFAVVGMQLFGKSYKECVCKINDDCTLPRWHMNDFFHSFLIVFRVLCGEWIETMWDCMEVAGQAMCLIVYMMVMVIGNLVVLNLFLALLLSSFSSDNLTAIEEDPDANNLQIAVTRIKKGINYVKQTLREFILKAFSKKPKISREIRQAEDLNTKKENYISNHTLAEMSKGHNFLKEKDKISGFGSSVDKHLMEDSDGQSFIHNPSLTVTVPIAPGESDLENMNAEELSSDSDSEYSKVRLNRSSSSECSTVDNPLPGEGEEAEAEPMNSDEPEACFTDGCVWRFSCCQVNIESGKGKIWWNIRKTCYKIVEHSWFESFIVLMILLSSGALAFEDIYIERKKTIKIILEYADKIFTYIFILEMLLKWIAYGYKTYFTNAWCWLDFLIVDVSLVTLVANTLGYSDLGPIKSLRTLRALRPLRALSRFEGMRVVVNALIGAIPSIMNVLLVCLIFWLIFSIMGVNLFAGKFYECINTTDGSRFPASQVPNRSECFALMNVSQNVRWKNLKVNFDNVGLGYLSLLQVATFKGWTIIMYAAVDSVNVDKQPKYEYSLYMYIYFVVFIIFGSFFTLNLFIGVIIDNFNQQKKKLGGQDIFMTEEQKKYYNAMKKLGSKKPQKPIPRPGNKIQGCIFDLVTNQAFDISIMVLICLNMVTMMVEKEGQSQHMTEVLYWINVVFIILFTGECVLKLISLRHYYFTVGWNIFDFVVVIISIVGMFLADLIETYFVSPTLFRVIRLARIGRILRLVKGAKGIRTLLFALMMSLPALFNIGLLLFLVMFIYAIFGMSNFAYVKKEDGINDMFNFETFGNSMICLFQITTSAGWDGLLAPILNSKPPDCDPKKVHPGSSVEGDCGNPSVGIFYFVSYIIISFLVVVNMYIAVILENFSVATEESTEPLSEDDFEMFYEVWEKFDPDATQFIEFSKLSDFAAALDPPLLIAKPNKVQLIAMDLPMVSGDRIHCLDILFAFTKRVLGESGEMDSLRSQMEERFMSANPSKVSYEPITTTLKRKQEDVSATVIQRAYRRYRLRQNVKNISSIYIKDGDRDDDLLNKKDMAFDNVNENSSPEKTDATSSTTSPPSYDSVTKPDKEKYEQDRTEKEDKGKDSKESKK

This assay addresses T1, hNaV1.7 (Homo sapiens, UniProt Q15858).
T1 construct: expressed in transfected cells
In words: Patch voltage clamp electrophysiology (EP), Syncropatch 384PE, Nav1.7 in CHO cells.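 Also: Nav1.7 stably expressed from cDNA in CHO cells, holding potential of −50 mV kept for the entire experiment.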 Format: cell-based. The following applies: holding potential −50 mV, inhibition based on 7.5 min compound incubation, read-out: hNaV1.7 EP_SP.
As for `O=C(NS(=O)(=O)N1CCc2ccccc2C1)c1cc(Cl)c(OCC2CCCC2)cc1F` [Example 19, 5-chloro-4-(cyclopentylmethoxy)-N-((3,4-dihydroisoquinolin-2(1H)-yl)sulfonyl)-2-fluorobenzamide], the IC50 was determined as 310 nM.
The value for `N#Cc1ccc(S(=O)(=O)NC(=O)c2cc(Cl)c(OCC3CCCC3)cc2F)c(F)c1` [Example 272, 5-chloro-N-((4-cyano-2-fluorophenyl)sulfonyl)-4-(cyclopentylmethoxy)-2-fluorobenzamide] was 210 nM; that for `NC[C@@H]1CN(S(=O)(=O)NC(=O)c2cc(C3CC3)c(OCC3CCCC3)cc2F)CCO1` (single isomer, unassigned) [Example 25, 2,2,2-trifluoroacetate] was 15 nM; that for `O=C(NS(=O)(=O)c1ccc(OCc2ccccc2Cl)cc1)c1cc(Cl)c(OCC2CCCC2)cc1F` [Example 264, 5-chloro-N-((4-((2-chlorobenzyl)oxy)phenyl)sulfonyl)-4-(cyclopentylmethoxy)-2-fluorobenzamide] was 84 nM.
The value for `O=C(NS(=O)(=O)Cc1cccc(F)c1F)c1cc(Cl)c(OCC2CCCC2)cc1F` [Example 268, 5-chloro-4-(cyclopentylmethoxy)-N-((2,3-difluorobenzyl)sulfonyl)-2-fluorobenzamide] was 88 nM; that for `CN1CC[C@H](OC2CCN(S(=O)(=O)NC(=O)c3cc(Cl)c(OCC4CCCC4)cc3F)CC2)C1` (single isomer, unassigned) [Example 38] was 39 nM.
With `C[C@H]1Cc2ccccc2N(S(=O)(=O)NC(=O)c2cc(Cl)c(OCC3CCCC3)cc2F)C1` (single isomer, unassigned) [Example 16], the IC50 was found to be 240 nM.
Regarding `O=C(NS(=O)(=O)c1ccc2c(c1)CCC2)c1cc(Cl)c(OCC2CCCC2)cc1F` [Example 262, 5-chloro-4-(cyclopentylmethoxy)-N-((2,3-dihydro-1H-inden-5-yl)sulfonyl)-2-fluorobenzamide], the IC50 came to 270 nM.
For `CN(C)C1CCCN(c2ccc(S(=O)(=O)NC(=O)c3cc(Cl)c(OCC4CCCC4)cc3F)cc2)C1` (single isomer, unassigned) [Example 209], the IC50 came out at 110 nM.
Then `O=C(NS(=O)(=O)c1ccc(OCc2cccnc2)cc1)c1cc(Cl)c(OCC2CCCC2)cc1F` [Example 310, 5-chloro-4-(cyclopentylmethoxy)-2-fluoro-N-((4-(pyridin-3-ylmethoxy)phenyl)sulfonyl)benzamide], with 18 nM; and `O=C(NS(=O)(=O)N1CC[C@H](OC2CCNCC2)C1)c1cc(Cl)c(OCC2CCCC2)cc1F` (single isomer, unassigned) [Example 212], with 87 nM.
On to `CO[C@H]1CC[C@@H](S(=O)(=O)NC(=O)c2cc(Cl)c(OCC3CCCC3)cc2F)CC1` [Example 87, cis-5-chloro-4-(cyclopentylmethoxy)-2-fluoro-N-((4-methoxycyclohexyl)sulfonyl)benzamide], for which the IC50 came out at 390 nM.
Regarding `C[C@H]1CCc2ccccc2N1S(=O)(=O)NC(=O)c1cc(Cl)c(OCC2CCCC2)cc1F` [(S) enantiomer of Example 18], the IC50 worked out at 500 nM.
Then `CNC[C@@H]1CN(S(=O)(=O)NC(=O)c2cc(Cl)c(OCC3CCCC3)cc2F)CCO1` (single isomer, unassigned) [Example 26], with 190 nM; and `O=C(NS(=O)(=O)N1CCCC1)c1cc(Cl)c(OCC2CCCC2)cc1F` [Example 22, 5-chloro-4-(cyclopentylmethoxy)-2-fluoro-N-(pyrrolidin-1-ylsulfonyl)-benzamide], with 9.1 nM.
Regarding `O=C(NS(=O)(=O)c1ccc2c(c1)CCCO2)c1cc(Cl)c(OCC2CCCC2)cc1F` [Example 265, 5-chloro-N-(chroman-6-ylsulfonyl)-4-(cyclopentylmethoxy)-2-fluorobenzamide], the IC50 stood at 330 nM.
Then `CN(C)[C@H]1C[C@@H](c2cccc(C(F)(F)F)c2)CC[C@@H]1Oc1ccc(S(=O)(=O)NC(=O)c2cc(C3CC3)ccc2F)c(F)c1` [Example 75, 5-cyclopropyl-N-((4-(((1S,2S,4S)-2-(dimethylamino)-4-(3-(trifluoromethyl)-phenyl)cyclohexyl)oxy)-2-fluorophenyl)sulfonyl)-2-fluorobenzamide], with 120 nM; and `O=C(NS(=O)(=O)c1cnn(-c2ccccc2F)c1)c1cc(Cl)c(OCC2CCCC2)cc1F` [Example 269, 5-chloro-4-(cyclopentylmethoxy)-2-fluoro-N-((1-(2-fluorophenyl)-1H-pyrazol-4-yl)sulfonyl)benzamide], with 940 nM; and `CN(C)[C@H]1CCCC[C@@H]1Nc1ccc(S(=O)(=O)NC(=O)c2ccc(OCC3CCCC3)c(Cl)c2)c(F)c1` [Example 57, 3-chloro-4-(cyclopentylmethoxy)-N-((4-(((1S,2S)-2-(dimethylamino)-cyclohexyl)amino)-2-fluorophenyl)sulfonyl)benzamide formate], with 540 nM.
The value for `C[C@H]1C[C@@H]1S(=O)(=O)NC(=O)c1cc(Cl)c(OCC2CCCC2)cc1F` (single isomer, unassigned) [Example 250] was 9.8 nM; that for `O=C(NS(=O)(=O)c1ccc(OCc2cccc(F)c2)cc1)c1cc(Cl)c(OCC2CCCC2)cc1F` [Example 298, 5-chloro-4-(cyclopentylmethoxy)-2-fluoro-N-((4-((3-fluorobenzyl)oxy)-phenyl)sulfonyl)benzamide] was 220 nM; that for `CN1CC(OC2CCN(S(=O)(=O)NC(=O)c3cc(Cl)c(Oc4ccc(Cl)c(C(F)(F)F)c4)cc3F)CC2)C1` [Example 239, 5-chloro-4-(4-chloro-3-(trifluoromethyl)phenoxy)-2-fluoro-N-((4-((1-methylazetidin-3-yl)oxy)piperidin-1-yl)sulfonyl)benzamide] was 25 nM.
The value for `CO[C@H]1CC[C@H](S(=O)(=O)NC(=O)c2cc(Cl)c(OCC3CCCC3)cc2F)CC1` [Example 86, trans-5-chloro-4-(cyclopentylmethoxy)-2-fluoro-N-((4-methoxycyclohexyl)sulfonyl)benzamide] was 100 nM; that for `O=C(NS(=O)(=O)c1ccc(OCc2ccccc2)cc1)c1cc(C2CC2)c(OCC2CCCC2)cc1F` [Example 83, N-((4-(benzyloxy)phenyl)sulfonyl)-4-(cyclopentylmethoxy)-5-cyclopropyl-2-fluorobenzamide] was 92 nM; that for `COc1ccc(S(=O)(=O)NC(=O)c2cc(Cl)c(OCC3CCCC3)cc2F)cc1` [Example 81, 5-chloro-4-(cyclopentylmethoxy)-2-fluoro-N-((4-methoxyphenyl)sulfonyl)-benzamide] was 140 nM.
Consider `O=C(NS(=O)(=O)N1CCC(O[C@H]2CCNC2)CC1)c1cc(Cl)c(OCC2CCCC2)cc1F` (single isomer, unassigned) [Example 37, 2,2,2-trifluoroacetate], for which the IC50 was 77 nM.
Then `O=C(NS(=O)(=O)N1CC2(CCO2)C1)c1cc(Cl)c(OCC2CCCC2)cc1F` [Example 228, N-((1-oxa-6-azaspiro[3.3]heptan-6-yl)sulfonyl)-5-chloro-4-(cyclopentylmethoxy)-2-fluorobenzamide], with 210 nM.
The value for `Cn1ncnc1COc1ccc(S(=O)(=O)NC(=O)c2cc(Cl)c(OCC3CCCC3)cc2F)cc1` [Example 286, 5-chloro-4-(cyclopentylmethoxy)-2-fluoro-N-((4-((1-methyl-1H-1,2,4-triazol-5-yl)methoxy)phenyl)sulfonyl)benzamide] was 160 nM.
Regarding `CN1CCCC(OC2CCN(S(=O)(=O)NC(=O)c3cc(Cl)c(OCC4CCCC4)cc3F)CC2)C1` (centres unmarked) [Example 52, 5-chloro-4-(cyclopentylmethoxy)-2-fluoro-N-((4-((1-methylpiperidin-3-yl)oxy)piperidin-1-yl)sulfonyl) benzamide], the IC50 came out at 170 nM.
Then `O=C(NS(=O)(=O)c1ccc(Cn2cncn2)cc1)c1cc(Cl)c(OCC2CCCC2)cc1F` [Example 292, N-((4-((1H-1,2,4-triazol-1-yl)methyl)phenyl)sulfonyl)-5-chloro-4-(cyclopentylmethoxy)-2-fluorobenzamide], with 430 nM; and `O=C(NS(=O)(=O)c1ccc(OC2CCNC2)cc1)c1cc(Cl)c(OCC2CCCC2)cc1F` (centres unmarked) [Example 325, 5-chloro-4-(cyclopentylmethoxy)-2-fluoro-N-((4-(pyrrolidin-3-yloxy)phenyl)sulfonyl)benzamide], with 240 nM.
Regarding `CC(C)COc1cc(F)c(C(=O)NS(=O)(=O)N2CCC(OC3CN(C)C3)CC2)cc1C1CC1` [Example 237, 5-cyclopropyl-2-fluoro-4-isobutoxy-N-((4-((1-methylazetidin-3-yl)oxy)piperidin-1-yl)sulfonyl)benzamide formic acid], the IC50 worked out at 50 nM.
Then `O=C(NS(=O)(=O)c1ccc(OCc2ccccc2)cc1)c1cc(Cl)c(OCC2CCCC2)cc1F` [Example 294, N-((4-(benzyloxy)phenyl)sulfonyl)-5-chloro-4-(cyclopentylmethoxy)-2-fluorobenzamide], with 130 nM; and `O=C(NS(=O)(=O)N1CC(O[C@@H]2CCCNC2)C1)c1cc(Cl)c(OCC2CCCC2)cc1F` (single isomer, unassigned) [Example 49], with 860 nM.
The value for `O=C(NS(=O)(=O)c1ccc(OCc2ccncc2)cc1)c1cc(Cl)c(OCC2CCCC2)cc1F` [Example 85, 5-chloro-4-(cyclopentylmethoxy)-2-fluoro-N-((4-(pyridin-4-ylmethoxy)-phenyl)sulfonyl)benzamide] was 16 nM; that for `O=C(NS(=O)(=O)c1ccc(OCc2ccc(F)cc2F)cc1)c1cc(Cl)c(OCC2CCCC2)cc1F` [Example 317, 5-chloro-4-(cyclopentylmethoxy)-N-((4-((2,4-difluorobenzyl)oxy)phenyl)sulfonyl)-2-fluorobenzamide] was 250 nM.
Then `O=C(NS(=O)(=O)C1CCNCC1)c1cc(Cl)c(OCC2CCCC2)cc1F` [Example 324, 5-chloro-4-(cyclopentylmethoxy)-2-fluoro-N-(piperidin-4-ylsulfonyl)-benzamide], with 790 nM; and `O=C(NS(=O)(=O)c1ccc(OCc2cncnc2)cc1)c1cc(Cl)c(OCC2CCCC2)cc1F` [Example 304, 5-chloro-4-(cyclopentylmethoxy)-2-fluoro-N-((4-(pyrimidin-5-ylmethoxy)phenyl)sulfonyl)benzamide], with 570 nM.
